From PubChem BioAssay AID1963964 (Molecular Pharmacology Branch, DTP, NCI, 2024)
Blank lines part the entries; values can stand above or below the molecule they belong to.

Test system: 997726-040-R-J2-PDC tumor spheroids, viability
Test: Anticancer human tumor 997726-040-R-J2-PDC patient-derived squamous cell lung carcinoma cell line growth inhibition [PI3K]
Details: spheroids with HUVEC and MSC; for IC50: curve of first compound; for viability, T/C: stronger effect = lower value
In short: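 Complex 3D spheroids (cancer cells + endothelial HUVEC + mesenchymal stem cells); drug pairs of targeted agent x inavolisib/alpelisib/duvelisib/copanlisib; half-log series from ~Cmax, max 10 microM if Cmax unknown; endpoint viability.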

[1] = second compound 0.0316 µM, first compound 0.000316 µM
[2] = second compound 0.0316 µM, first compound 0.001 µM
[3] = second compound 0.0316 µM, first compound 0.00316 µM
[4] = second compound 0.0316 µM, first compound 0.01 µM
[5] = second compound 0.0316 µM, first compound 0.0316 µM
[6] = second compound 0.0316 µM, first compound 0.1 µM
[7] = second compound 0.1 µM, first compound 0.000316 µM
[8] = second compound 0.1 µM, first compound 0.001 µM
[9] = second compound 0.1 µM, first compound 0.00316 µM
[10] = second compound 0.1 µM, first compound 0.01 µM
[11] = second compound 0.1 µM, first compound 0.0316 µM
[12] = second compound 0.1 µM, first compound 0.1 µM
[13] = second compound 0.316 µM, first compound 0.000316 µM
[14] = second compound 0.316 µM, first compound 0.001 µM
[15] = second compound 0.316 µM, first compound 0.00316 µM
[16] = second compound 0.316 µM, first compound 0.01 µM
[17] = second compound 0.316 µM, first compound 0.0316 µM
[18] = second compound 0.316 µM, first compound 0.1 µM
[19] = second compound 1 µM, first compound 0.000316 µM
[20] = second compound 1 µM, first compound 0.001 µM
[21] = second compound 1 µM, first compound 0.00316 µM
[22] = second compound 1 µM, first compound 0.01 µM
[23] = second compound 1 µM, first compound 0.0316 µM
[24] = second compound 1 µM, first compound 0.1 µM
[25] = second compound 3.16 µM, first compound 0.000316 µM
[26] = second compound 3.16 µM, first compound 0.001 µM
[27] = second compound 3.16 µM, first compound 0.00316 µM
[28] = second compound 3.16 µM, first compound 0.01 µM
[29] = second compound 3.16 µM, first compound 0.0316 µM
[30] = second compound 3.16 µM, first compound 0.1 µM
[31] = second compound 10 µM, first compound 0.000316 µM
[32] = second compound 10 µM, first compound 0.001 µM
[33] = second compound 10 µM, first compound 0.00316 µM
[34] = second compound 10 µM, first compound 0.01 µM
[35] = second compound 10 µM, first compound 0.0316 µM
[36] = second compound 10 µM, first compound 0.1 µM
[37] = second compound 0.0316 µM, first compound 0.316 µM
[38] = second compound 0.0316 µM, first compound 1 µM
[39] = second compound 0.0316 µM, first compound 3.16 µM
[40] = second compound 0.0316 µM, first compound 10 µM
[41] = second compound 0.1 µM, first compound 0.316 µM
[42] = second compound 0.1 µM, first compound 1 µM
[43] = second compound 0.1 µM, first compound 3.16 µM
[44] = second compound 0.1 µM, first compound 10 µM
[45] = second compound 0.316 µM, first compound 0.316 µM
[46] = second compound 0.316 µM, first compound 1 µM
[47] = second compound 0.316 µM, first compound 3.16 µM
[48] = second compound 0.316 µM, first compound 10 µM
[49] = second compound 1 µM, first compound 0.316 µM
[50] = second compound 1 µM, first compound 1 µM
[51] = second compound 1 µM, first compound 3.16 µM
[52] = second compound 1 µM, first compound 10 µM
[53] = second compound 3.16 µM, first compound 0.316 µM
[54] = second compound 3.16 µM, first compound 1 µM
[55] = second compound 3.16 µM, first compound 3.16 µM
[56] = second compound 3.16 µM, first compound 10 µM
[57] = second compound 10 µM, first compound 0.316 µM
[58] = second compound 10 µM, first compound 1 µM
[59] = second compound 10 µM, first compound 3.16 µM
[60] = second compound 10 µM, first compound 10 µM
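Further: spheroids exposed to compounds for seven days before readout.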

IC50 (second compound 0.0316 µM): > 100 nM
IC50 (second compound 0.1 µM): 58.7 nM
IC50 (second compound 0.316 µM): 19.7 nM
IC50 (second compound 1 µM): < 0.316 nM
IC50 (second compound 3.16 µM): < 0.316 nM
IC50 (second compound 10 µM): < 0.316 nM
SMILES: CC(=O)c1c(C)c2cnc(Nc3ccc(N4CCNCC4)cn3)nc2n(C2CCCC2)c1=O + Cc1nc(NC(=O)N2CCCC2C(N)=O)sc1-c1ccnc(C(C)(C)C(F)(F)F)c1
viability, T/C [1]: 94.4%
viability, T/C [2]: 90.6%
viability, T/C [3]: 83.3%
viability, T/C [4]: 72.9%
viability, T/C [5]: 75.5%
viability, T/C [6]: 51.9%
viability, T/C [7]: 81.5%
viability, T/C [8]: 74.8%
viability, T/C [9]: 71.9%
viability, T/C [10]: 65.2%
viability, T/C [11]: 59.5%
viability, T/C [12]: 43.1%
viability, T/C [13]: 53.4%
viability, T/C [14]: 59%
viability, T/C [15]: 52.9%
viability, T/C [16]: 55.7%
viability, T/C [17]: 46.4%
viability, T/C [18]: 34.8%
viability, T/C [19]: 41.9%
viability, T/C [20]: 44.1%
viability, T/C [21]: 40.1%
viability, T/C [22]: 35.5%
viability, T/C [23]: 29.1%
viability, T/C [24]: 28.4%
viability, T/C [25]: 29.6%
viability, T/C [26]: 30.5%
viability, T/C [27]: 26.2%
viability, T/C [28]: 27.7%
viability, T/C [29]: 27.2%
viability, T/C [30]: 18.6%
viability, T/C [31]: 19.2%
viability, T/C [32]: 15.7%
viability, T/C [33]: 13.4%
viability, T/C [34]: 14.9%
viability, T/C [35]: 11.8%
viability, T/C [36]: 10.5%

IC50 (second compound 0.0316 µM): 17.1 nM
IC50 (second compound 0.1 µM): 10.7 nM
IC50 (second compound 0.316 µM): 3.53 nM
IC50 (second compound 1 µM): < 0.316 nM
IC50 (second compound 3.16 µM): < 0.316 nM
IC50 (second compound 10 µM): < 0.316 nM
SMILES: CC(C)n1nc(-c2ccc3oc(N)nc3c2)c2c(N)ncnc21 + Cc1nc(NC(=O)N2CCCC2C(N)=O)sc1-c1ccnc(C(C)(C)C(F)(F)F)c1
viability, T/C [1]: 80.4%
viability, T/C [2]: 80%
viability, T/C [3]: 66.5%
viability, T/C [4]: 62%
viability, T/C [5]: 38.8%
viability, T/C [6]: 7.7%
viability, T/C [7]: 84.9%
viability, T/C [8]: 71.1%
viability, T/C [9]: 64.4%
viability, T/C [10]: 52.8%
viability, T/C [11]: 33.6%
viability, T/C [12]: 7.57%
viability, T/C [13]: 62%
viability, T/C [14]: 61.8%
viability, T/C [15]: 51.1%
viability, T/C [16]: 36.7%
viability, T/C [17]: 28.6%
viability, T/C [18]: 6.37%
viability, T/C [19]: 43.7%
viability, T/C [20]: 38.9%
viability, T/C [21]: 38.3%
viability, T/C [22]: 32.7%
viability, T/C [23]: 21.3%
viability, T/C [24]: 3.77%
viability, T/C [25]: 32.4%
viability, T/C [26]: 31.8%
viability, T/C [27]: 27.9%
viability, T/C [28]: 24.5%
viability, T/C [29]: 9.73%
viability, T/C [30]: 2.15%
viability, T/C [31]: 21%
viability, T/C [32]: 11.3%
viability, T/C [33]: 10.4%
viability, T/C [34]: 8.32%
viability, T/C [35]: 4.53%
viability, T/C [36]: 1.59%

IC50 (second compound 0.0316 µM): 6890 nM
IC50 (second compound 0.1 µM): 6000 nM
IC50 (second compound 0.316 µM): 4660 nM
IC50 (second compound 1 µM): 31.6 nM
IC50 (second compound 3.16 µM): < 31.6 nM
IC50 (second compound 10 µM): < 31.6 nM
SMILES: CCCS(=O)(=O)Nc1ccc(F)c(C(=O)c2c[nH]c3ncc(-c4ccc(Cl)cc4)cc23)c1F + Cc1nc(NC(=O)N2CCCC2C(N)=O)sc1-c1ccnc(C(C)(C)C(F)(F)F)c1
viability, T/C [5]: 88.6%
viability, T/C [6]: 93.5%
viability, T/C [37]: 103%
viability, T/C [38]: 122%
viability, T/C [39]: 103%
viability, T/C [40]: 25%
viability, T/C [11]: 76.4%
viability, T/C [12]: 80.5%
viability, T/C [41]: 80.5%
viability, T/C [42]: 95.7%
viability, T/C [43]: 88.4%
viability, T/C [44]: 22.6%
viability, T/C [17]: 55.6%
viability, T/C [18]: 62.3%
viability, T/C [45]: 69.8%
viability, T/C [46]: 63.7%
viability, T/C [47]: 66.9%
viability, T/C [48]: 23.3%
viability, T/C [23]: 41.9%
viability, T/C [24]: 40.5%
viability, T/C [49]: 48.3%
viability, T/C [50]: 57.1%
viability, T/C [51]: 52%
viability, T/C [52]: 18.1%
viability, T/C [29]: 29.2%
viability, T/C [30]: 31.4%
viability, T/C [53]: 31.7%
viability, T/C [54]: 34.7%
viability, T/C [55]: 31.1%
viability, T/C [56]: 17.9%
viability, T/C [35]: 16.4%
viability, T/C [36]: 16.9%
viability, T/C [57]: 13.8%
viability, T/C [58]: 17.1%
viability, T/C [59]: 11.9%
viability, T/C [60]: 7.69%

IC50 (second compound 0.0316 µM): > 10000 nM
IC50 (second compound 0.1 µM): > 10000 nM
IC50 (second compound 0.316 µM): > 10000 nM
IC50 (second compound 1 µM): < 31.6 nM
IC50 (second compound 3.16 µM): < 31.6 nM
IC50 (second compound 10 µM): < 31.6 nM
SMILES: CNC(=O)c1ccc(N2C(=S)N(c3ccc(C#N)c(C(F)(F)F)c3)C(=O)C2(C)C)cc1F + Cc1nc(NC(=O)N2CCCC2C(N)=O)sc1-c1ccnc(C(C)(C)C(F)(F)F)c1
viability, T/C [5]: 74.4%
viability, T/C [6]: 82.2%
viability, T/C [37]: 80.9%
viability, T/C [38]: 89.3%
viability, T/C [39]: 81.9%
viability, T/C [40]: 78.8%
viability, T/C [11]: 74.5%
viability, T/C [12]: 81.3%
viability, T/C [41]: 73.5%
viability, T/C [42]: 69.7%
viability, T/C [43]: 70.5%
viability, T/C [44]: 71.1%
viability, T/C [17]: 51.3%
viability, T/C [18]: 65%
viability, T/C [45]: 54.5%
viability, T/C [46]: 57.9%
viability, T/C [47]: 48.9%
viability, T/C [48]: 54.6%
viability, T/C [23]: 41.7%
viability, T/C [24]: 44.2%
viability, T/C [49]: 37.5%
viability, T/C [50]: 38.2%
viability, T/C [51]: 39.9%
viability, T/C [52]: 39%
viability, T/C [29]: 32.7%
viability, T/C [30]: 29.3%
viability, T/C [53]: 26.9%
viability, T/C [54]: 29.5%
viability, T/C [55]: 30.4%
viability, T/C [56]: 25.5%
viability, T/C [35]: 16.1%
viability, T/C [36]: 16.9%
viability, T/C [57]: 12.6%
viability, T/C [58]: 13.2%
viability, T/C [59]: 11.9%
viability, T/C [60]: 9.07%
